# Target: T1, human Cot/Tpl2 kinase (Homo sapiens, UniProt P41279)
# T1 construct: human Cot/Tpl2 kinase construct encoding residues 30-398; 6His (N); made in house; host or cells: Sf9 insect cells, baculovirus system (BD Biosciences)
# Assay: Tpl2/Cot kinase assay: GST-MEK1 phosphorylation detected by ELISA (DELFIA Eu)
# Format: biochemical
# Details: Tpl2/Cot kinase, GST-MEK1 substrate, 50 uM ATP
# In short: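 His-tagged human Tpl2 from Sf9 cells, Ni-affinity and size-exclusion purified (monomer). 0.4 nM Tpl2 with 35 nM GST-MEK1, 50 uM ATP, MOPS pH 7.2, 1% DMSO, 1 h at 30° C; EDTA stop. MEK1 Ser217/221 phosphorylation detected by anti-phospho-MEK1 and Eu-labelled secondary ELISA; IC50 fitted.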
# T1 sequence (P41279 30-398): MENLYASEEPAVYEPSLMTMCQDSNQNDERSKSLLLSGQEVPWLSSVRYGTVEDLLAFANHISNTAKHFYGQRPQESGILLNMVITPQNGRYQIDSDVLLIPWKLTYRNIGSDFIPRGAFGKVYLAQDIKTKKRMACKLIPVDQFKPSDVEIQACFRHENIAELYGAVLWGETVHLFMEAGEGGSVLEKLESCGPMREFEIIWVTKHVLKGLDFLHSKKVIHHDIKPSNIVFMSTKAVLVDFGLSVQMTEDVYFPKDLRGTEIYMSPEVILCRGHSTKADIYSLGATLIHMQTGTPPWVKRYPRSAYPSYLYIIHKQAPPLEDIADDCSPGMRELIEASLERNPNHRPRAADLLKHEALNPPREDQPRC
row,IC50,Compound
1,800 nM,N#Cc1cnc2c(Br)cc(NCc3cc(C4CCNCC4)n[nH]3)cc2c1Nc1ccc(F)c(Cl)c1 [Example 707]
2,34 nM,CN1CCCC1CCn1cnc(CNc2cc(Br)c3ncc(C#N)c(Nc4ccc(F)c(Cl)c4)c3c2)c1 (stereo not shown) [Example 708]
3,1.1 nM,CS(=O)(=O)N1CCC(n2cc(CNc3cc(Br)c4ncc(C#N)c(Nc5ccc(F)c(Cl)c5)c4c3)nn2)CC1 [Example 710]
4,3.4 nM,N#Cc1cnc2c(Br)cc(NCc3cn(CCCN4CCCCC4)nn3)cc2c1Nc1ccc(F)c(Cl)c1 [Example 711]
5,1.1 nM,N#Cc1cnc2c(Cl)cc(NCc3cn(CCCN4CCCCC4)nn3)cc2c1Nc1ccc(F)c(Cl)c1 [Example 712]
6,120 nM,CC(C)(C)OC(=O)N1CCCC(Cn2cc(CNc3cc(Br)c4ncc(C#N)c(Nc5ccc(F)c(Cl)c5)c4c3)nn2)C1 (stereo not shown) [Example 713]
7,250 nM,CC(C)(C)OC(=O)N1CCCC(Cn2cc(CNc3cc(Cl)c4ncc(C#N)c(Nc5ccc(F)c(Cl)c5)c4c3)nn2)C1 (stereo not shown) [Example 714]
8,190 nM,CC(C)(C)CN1CCC(n2cc(CNc3cc(Br)c4ncc(C#N)c(Nc5ccc(F)c(Cl)c5)c4c3)nn2)CC1 [Example 715]
9,320 nM,CC(C)(C)OC(=O)N1CCCC1Cn1cc(CNc2cc(Cl)c3ncc(C#N)c(Nc4ccc(F)c(Cl)c4)c3c2)nn1 (stereo not shown) [Example 716]
10,270 nM,CC(C)(C)OC(=O)N1CCCC1Cn1cc(CNc2cc(Br)c3ncc(C#N)c(Nc4ccc(F)c(Cl)c4)c3c2)nn1 (stereo not shown) [Example 717]
11,33 nM,N#Cc1cnc2c(Br)cc(NCc3cn(CC4CCCNC4)nn3)cc2c1Nc1ccc(F)c(Cl)c1 (stereo not shown) [Example 718]
12,48 nM,N#Cc1cnc2c(Cl)cc(NCc3cn(CC4CCCNC4)nn3)cc2c1Nc1ccc(F)c(Cl)c1 (stereo not shown) [Example 719]
13,6.1 nM,CC(=O)N1CCC(n2cc(CNc3cc(Br)c4ncc(C#N)c(Nc5ccc(F)c(Cl)c5)c4c3)nn2)CC1 [Example 720]
14,9.1 nM,N#Cc1cnc2c(Cl)cc(NCc3cn(CC4CCCN4)nn3)cc2c1Nc1ccc(F)c(Cl)c1 (stereo not shown) [Example 721]
15,9.2 nM,N#Cc1cnc2c(Br)cc(NCc3cn(CC4CCCN4)nn3)cc2c1Nc1ccc(F)c(Cl)c1 (stereo not shown) [Example 722]
16,330 nM,N#Cc1cnc2c(Br)cc(NCc3cc([C@@H]4CCCN4)n[nH]3)cc2c1Nc1ccc(F)c(Cl)c1 [Example 724]
17,23 nM,N#Cc1cnc2c(Br)cc(NCc3cn(-c4ccncc4)cn3)cc2c1Nc1ccc(F)c(Cl)c1 [Example 725]
18,7 nM,N#Cc1cnc2c(Cl)cc(NCc3cn(Cc4cccnc4)cn3)cc2c1Nc1ccc(F)c(Cl)c1 [Example 726]
19,3.4 nM,N#Cc1cnc2c(Br)cc(NCc3cn(CCc4ccccn4)nn3)cc2c1Nc1ccc(F)c(Cl)c1 [Example 728]
20,5.5 nM,N#Cc1cnc2c(Br)cc(NCc3cn(-c4ccncc4)nn3)cc2c1Nc1ccc(F)c(Cl)c1 [Example 729]
21,20 nM,C=CCn1cc(CNc2cc(Br)c3ncc(C#N)c(Nc4ccc(F)c(Cl)c4)c3c2)nn1 [Example 732]
22,20 nM,COCCn1cc(CNc2cc(Cl)c3ncc(C#N)c(Nc4ccc(F)c(Cl)c4)c3c2)nn1 [Example 733]
23,14 nM,N#Cc1cnc2c(Cl)cc(NCc3cn(C4CCOCC4)nn3)cc2c1Nc1ccc(F)c(Cl)c1 [Example 734]
24,40 nM,CCN1CCC(Cn2cc(CNc3cc(Br)c4ncc(C#N)c(Nc5ccc(F)c(Cl)c5)c4c3)nn2)CC1 [Example 735]
25,29 nM,CC(C)N1CCC(Cn2cc(CNc3cc(Br)c4ncc(C#N)c(Nc5ccc(F)c(Cl)c5)c4c3)nn2)CC1 [Example 736]
26,64 nM,CCN1CCC(CCn2cc(CNc3cc(Br)c4ncc(C#N)c(Nc5ccc(F)c(Cl)c5)c4c3)nn2)CC1 [Example 737]
27,57 nM,CC(C)N1CCC(CCn2cc(CNc3cc(Br)c4ncc(C#N)c(Nc5ccc(F)c(Cl)c5)c4c3)nn2)CC1 [Example 738]
28,93 nM,CN(C)CC(c1ccccc1)n1cc(CNc2cc(Br)c3ncc(C#N)c(Nc4ccc(F)c(Cl)c4)c3c2)nn1 (stereo not shown) [Example 739]

# From patent US20060264460A1 (Wyeth, priority 2005, published 2006)
